Measured values reported in patent US12291518B2, “Thyroid hormone receptor agonists and use thereof” (Eccogene Inc., priority 2020, dated 2025).

Columns and labels:
THR beta-LBD = target: T1, THR beta-LBD (Homo sapiens, UniProt P10828); assay: THR-β Coactivator Peptide Recruitment Assay (LanthaScreen TR-FRET); format: biochemical; conditions: TR-FRET coactivator recruitment, THR beta-LBD 0.5 nM; for EC50: read-out: THRβ EC50
T1 construct: THR beta-LBD (the final concentration is 0.5 nM) was added to the 384-well assay plate; purchased Invitrogen PV4686
T1 sequence (P10828 217-461 limits assumed): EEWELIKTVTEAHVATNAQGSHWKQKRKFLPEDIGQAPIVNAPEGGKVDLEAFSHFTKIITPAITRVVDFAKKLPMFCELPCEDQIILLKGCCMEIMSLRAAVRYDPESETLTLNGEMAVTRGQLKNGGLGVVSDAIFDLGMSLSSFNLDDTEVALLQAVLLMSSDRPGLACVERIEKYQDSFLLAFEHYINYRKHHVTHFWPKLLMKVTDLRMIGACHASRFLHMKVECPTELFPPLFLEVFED
Method: (§1) A time-resolved FRET (TR-FRET) assay was used to test representative compounds of the application.
(§2) THR-β Coactivator Peptide Recruitment Assay were conducted by using Invitrogen's LanthaScreen™ TR-FRET Thyroid Receptor beta Assay Kit (Catalog no. PV4686). Binding of an agonist to the nuclear receptor causes a subsequent binding of a coactivator peptide, resulting in fluorescence energy transfer from the labelled nuclear receptor to the proximal coactivator peptide, which reflects the binding affinity of the agonist and the nuclear receptor. The assay was conducted by following the manufacturer's instructions. Briefly, THR beta-LBD (the final concentration is 0.5 nM) was added to the 384-well assay plate containing test compounds, followed by addition of Fluorescein-SRC2-2 coactivator peptide and terbium (Tb)-labeled anti-GST antibody. The final concentration of THR beta-LBD, Fluorescein-SRC2-2 coactivator peptide and terbium (Tb)-labeled anti-GST antibody is 0.5 nM, 0.1 nM and 2 nM, respectively. After a gentle mix and incubation at room temperature for 2 h, the signal was read on the EnVision Multilabel Plate Reader at wavelengths of 520 nm and 495 nm. TR-FRET ratio was calculated by dividing the emission signal at 520 nm and the emission signal at 495 nm, and then was plotted against a sigmoidal dose response curve (four parameters, GraphPad™ Prism 8) to determine the EC50 value.

THR alpha-LBD = target: T2, THR alpha-LBD (Homo sapiens, UniProt P10827); assay: THR-α Coactivator Peptide Recruitment Assay (LanthaScreen TR-FRET); format: biochemical; conditions: TR-FRET coactivator recruitment, THR alpha-LBD 0.25 nM; for EC50: read-out: THRα EC50
T2 construct: except that THR alpha-LBD of a final concentration 0.25 nM was used; purchased Invitrogen PV4687
T2 sequence (P10827 163-410 isoform P10827-2 limits assumed, other chains not shown): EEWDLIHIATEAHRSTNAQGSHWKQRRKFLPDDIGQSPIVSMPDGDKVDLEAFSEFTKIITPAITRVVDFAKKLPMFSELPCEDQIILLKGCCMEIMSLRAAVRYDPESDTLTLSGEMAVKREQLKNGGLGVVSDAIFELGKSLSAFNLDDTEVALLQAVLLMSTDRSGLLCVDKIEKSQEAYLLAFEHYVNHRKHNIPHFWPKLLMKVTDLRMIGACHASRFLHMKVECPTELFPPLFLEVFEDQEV
Method: as §1, §2
THR-α Coactivator Peptide Recruitment Assay were conducted by using Invitrogen's LanthaScreen™ TR-FRET Thyroid Receptor alpha Assay Kit (Catalog no. PV4687), following the same method described above except that THR alpha-LBD of a final concentration 0.25 nM was used.

THRβ Emax (THR beta-LBD)	EC50 (THR beta-LBD) [nM]	THRα Emax (THR alpha-LBD)	EC50 (THR alpha-LBD) [nM]	Structure (SMILES)
C (<75)	2 to 20	B (40~85)	200 to 1000	O=c1[nH]c(=O)n(-c2cc(Cl)c(Oc3ccc(O)c(S(=O)(=O)N[C@@H]4CC[C@@H](O)C4)c3)c(Cl)c2)nc1C(F)F (racemic) [Compound 75, 5-(2,6-dichloro-4-(6-(difluoromethyl)-3,5-dioxo-4,5-dihydro-1,2,4-triazin-2(3H)-yl)phenoxy)-2-hydroxy-N-((1R,3R)-3-hydroxycyclopentyl)benzenesulfonamide]
A (90~110)	< 2	A (85~110)	2 to 200	O=C(c1cc(Oc2c(Cl)cc(-n3nc(Cl)c(=O)[nH]c3=O)cc2Cl)ccc1O)N1C[C@H]2CC[C@@H]1C2 (single isomer, unassigned) [Compound 7]
B (75~90)	< 2	B (40~85)	2 to 200	O=C(c1cc(Oc2c(Cl)cc(-n3nc(Cl)c(=O)[nH]c3=O)cc2Cl)ccc1O)N1C[C@@H]2CC[C@H]1C2 (single isomer, unassigned) [Compound 8]
C (<75)	20 to 100	B (40~85)	200 to 1000	CN1C[C@@H](NS(=O)(=O)c2cc(Oc3c(Cl)cc(-n4nc(C(F)F)c(=O)[nH]c4=O)cc3Cl)ccc2O)CC1=O (single isomer, unassigned) [Compound 34]
C (<75)	20 to 100	B (40~85)	200 to 1000	CN1C[C@H](NS(=O)(=O)c2cc(Oc3c(Cl)cc(-n4nc(C(F)F)c(=O)[nH]c4=O)cc3Cl)ccc2O)CC1=O (single isomer, unassigned) [Compound 35]
C (<75)	20 to 100	B (40~85)	200 to 1000	O=c1[nH]c(=O)n(-c2cc(Cl)c(Oc3cc(S(=O)(=O)N[C@@H]4CC[C@@H]4O)c(O)cn3)c(Cl)c2)nc1C(F)F (stereo in doubt) [Compound 170, 2-[2,6-dichloro-4-[6-(difluoromethyl)-3,5-dioxo-1,2,4-triazin-2-yl]phenoxy]-5-hydroxy-N-[(1R,2S)-2-hydroxycyclobutyl]pyridine-4-sulfonamide]
C (<75)	20 to 100	C (<40)	200 to 1000	O=c1[nH]c(=O)n(-c2cc(Cl)c(Oc3cc(S(=O)(=O)N[C@@H]4CC[C@H]4O)c(O)cn3)c(Cl)c2)nc1C(F)F (stereo in doubt) [Compound 171, 2-[2,6-dichloro-4-[6-(difluoromethyl)-3,5-dioxo-1,2,4-triazin-2-yl]phenoxy]-5-hydroxy-N-[(1R,2R)-2-hydroxycyclobutyl]pyridine-4-sulfonamide]
A (90~110)	2 to 20	B (40~85)	2 to 200	O=C(NC1CCC1)c1cc(Oc2c(Cl)cc(-n3nc(C(F)F)c(=O)[nH]c3=O)cc2Cl)ccc1O [Compound 1, N-cyclobutyl-5-[2,6-dichloro-4-[6-(difluoromethyl)-3,5-dioxo-1,2,4-triazin-2-yl]phenoxy]-2-hydroxy-benzamide]
B (75~90)	2 to 20	B (40~85)	200 to 1000	O=C(N[C@H]1C[C@H](O)C1)c1cc(Oc2c(Cl)cc(-n3nc(C(F)F)c(=O)[nH]c3=O)cc2Cl)ccc1O [Compound 2, 5-(2,6-dichloro-4-(6-(difluoromethyl)-3,5-dioxo-4,5-dihydro-1,2,4-triazin-2(3H)-yl)phenoxy)-2-hydroxy-N-((1r,3r)-3-hydroxycyclobutyl)benzamide]
A (90~110)	20 to 100	B (40~85)	> 1000	O=C(NC1CC(F)(F)C1)c1cc(Oc2c(Cl)cc(-n3nc(C(F)(F)F)c(=O)[nH]c3=O)cc2Cl)ccc1O [Compound 3, 5-[2,6-dichloro-4-[3,5-dioxo-6-(trifluoromethyl)-1,2,4-triazin-2-yl]phenoxy]-N-(3,3-difluorocyclobutyl)-2-hydroxy-benzamide]
A (90~110)	20 to 100	B (40~85)	200 to 1000	CC(C)(C)NC(=O)c1cc(Oc2c(Cl)cc(-n3nc(C(F)(F)F)c(=O)[nH]c3=O)cc2Cl)ccc1O [Compound 4, N-(tert-butyl)-5-(2,6-dichloro-4-(3,5-dioxo-6-(trifluoromethyl)-4,5-dihydro-1,2,4-triazin-2(3H)-yl)phenoxy)-2-hydroxybenzamide]
A (90~110)	20 to 100	B (40~85)	> 1000	O=C(NC1CCC1)c1cc(Oc2c(Cl)cc(-n3nc(C(F)(F)F)c(=O)[nH]c3=O)cc2Cl)ccc1O [Compound 5, N-cyclobutyl-5-(2,6-dichloro-4-(3,5-dioxo-6-(trifluoromethyl)-4,5-dihydro-1,2,4-triazin-2(3H)-yl)phenoxy)-2-hydroxybenzamide]
B (75~90)	20 to 100	B (40~85)	> 1000	O=C(NC12CC3(F)CC(F)(CC(F)(C3)C1)C2)c1cc(Oc2c(Cl)cc(-n3nc(C(F)F)c(=O)[nH]c3=O)cc2Cl)ccc1O [Compound 6, 5-(2,6-dichloro-4-(6-(difluoromethyl)-3,5-dioxo-4,5-dihydro-1,2,4-triazin-2 (3H)-yl)phenoxy)-2-hydroxy-N-(3,5,7-trifluoroadamantan-1-yl) benzamide]
A (90~110)	> 100	B (40~85)	200 to 1000	O=c1[nH]c(=O)n(-c2cc(Cl)c(S(=O)(=O)c3ccc(O)c(C4CCC4)c3)c(Cl)c2)nc1C(F)(F)F [Compound 9, 2-[3,5-dichloro-4-(3-cyclobutyl-4-hydroxy-phenyl)sulfonyl-phenyl]-6-(trifluoromethyl)-1,2,4-triazine-3,5-dione]
B (75~90)	> 100	C (<40)	> 1000	O=C(NC1CCC1)c1cc(Oc2c(Cl)cc(-n3nc(C(F)(F)F)c(=O)[nH]c3=O)cc2Cl)c(F)cc1O [Compound 10, N-cyclobutyl-5-[2,6-dichloro-4-[3,5-dioxo-6-(trifluoromethyl)-1,2,4-triazin-2-yl]phenoxy]-4-fluoro-2-hydroxy-benzamide]
A (90~110)	> 100	B (40~85)	> 1000	O=C(NC1CCC1)c1cc(Oc2c(Cl)cc(-n3nc(C(F)F)c(=O)[nH]c3=O)cc2Cl)c(F)cc1O [Compound 11, N-cyclobutyl-5-[2,6-dichloro-4-[6-(difluoromethyl)-3,5-dioxo-1,2,4-triazin-2-yl]phenoxy]-4-fluoro-2-hydroxy-benzamide]
A (90~110)	< 2	A (85~110)	< 2	O=c1[nH]c(=O)n(-c2cc(Cl)c(Oc3ccc(O)c(S(=O)(=O)NC4CCC4)c3)c(Cl)c2)nc1C(F)F [Compound 12, N-cyclobutyl-5-[2,6-dichloro-4-[6-(difluoromethyl)-3,5-dioxo-1,2,4-triazin-2-yl]phenoxy]-2-hydroxy-benzenesulfonamide]
A (90~110)	< 2	A (85~110)	< 2	CNS(=O)(=O)c1cc(Oc2c(Cl)cc(-n3nc(C(F)F)c(=O)[nH]c3=O)cc2Cl)ccc1O [Compound 13, 5-(2,6-dichloro-4-(6-(difluoromethyl)-3,5-dioxo-4,5-dihydro-1,2,4-triazin-2(3H)-yl)phenoxy)-2-hydroxy-N-methylbenzenesulfonamide]
A (90~110)	< 2	A (85~110)	< 2	O=c1[nH]c(=O)n(-c2cc(Cl)c(Oc3ccc(O)c(S(=O)(=O)NC4CC4)c3)c(Cl)c2)nc1C(F)F [Compound 14, N-cyclopropyl-5-(2,6-dichloro-4-(6-(difluoromethyl)-3,5-dioxo-4,5-dihydro-1,2,4-triazin-2(3H)-yl)phenoxy)-2-hydroxybenzenesulfonamide]
B (75~90)	< 2	B (40~85)	< 2	O=c1[nH]c(=O)n(-c2cc(Cl)c(Oc3ccc(O)c([S@TB3](=O)(=O)N4CCOCC4)c3)c(Cl)c2)nc1C(F)F [Compound 15, 2-(3,5-dichloro-4-(4-hydroxy-3-(morpholinosulfonyl)phenoxy)phenyl)-6-(difluoromethyl)-1,2,4-triazine-3,5(2H,4H)-dione]
